In series [1] the test system is Saccharomyces cerevisiae (ATCC-9763). Kind of series: Broth microdilution MIC/MFC, S. cerevisiae. The format is cell-based. As to conditions: ATCC9763. For orientation: In broth dilution the organism is exposed to a series of concentrations in liquid medium.
A further series relates to S. faecalis (MTCC- 0459). The experiment in a line: Broth microdilution MIC/MBC, S. faecalis. The format is cell-based, Streptococcus faecalis. As to conditions: for MIC: Enterococcus faecalis, MTCC0459; for antibacterial potency relative to penicillin G (times greater): by MIC, organism not named in the sentence (values match S. faecalis).
The subject of series [2] is hemolytic activity of E. coli. The experiment in a line: Hemolysin inhibition assay, E. coli. Type of series: cell-based. The settings on record: at 75%MBC, control 100% hemolysis.
For a further series, the system named is E. coli (ATCC- 25955). Kind of series: microbe, parasite or virus in culture. As to conditions: Escherichia coli, ATCC25955. Type of series: cell-based.
The subject of series [3] is hemolytic activity of S. faecalis. Kind of series: Hemolysin inhibition assay, S. faecalis. The format is cell-based. The settings on record: at 75%MBC, control 100% hemolysis.
The test system of series [4] is Bacillus pumilis (MTCC- 2296). Kind of series: Broth microdilution MIC/MBC, B. pumilis. Type of series: cell-based. The settings on record: for potency relative to penicillin G (times greater): B. pumilis, by MIC; for MIC: Bacillus, MTCC2296.
Series [5] relates to Enterobacter cloacae (ATCC- 23355). The format is cell-based. As to conditions: E. cloacae.
Series [6] deals with Candida albicans (ATCC-10231). The experiment in a line: Broth microdilution MIC/MFC, C. albicans. Type of series: cell-based. The settings on record: ATCC10231.
The target in another series is E. coli MurA (Escherichia coli, UniProt P0A749). The experiment in a line: MurA enzyme inhibition assay. Type of series: biochemical.

The structures appear in SMILES notation. Values after ≈ are worked out from the molar mass of the structure shown.

Chain of E. coli MurA (P0A749 whole entry): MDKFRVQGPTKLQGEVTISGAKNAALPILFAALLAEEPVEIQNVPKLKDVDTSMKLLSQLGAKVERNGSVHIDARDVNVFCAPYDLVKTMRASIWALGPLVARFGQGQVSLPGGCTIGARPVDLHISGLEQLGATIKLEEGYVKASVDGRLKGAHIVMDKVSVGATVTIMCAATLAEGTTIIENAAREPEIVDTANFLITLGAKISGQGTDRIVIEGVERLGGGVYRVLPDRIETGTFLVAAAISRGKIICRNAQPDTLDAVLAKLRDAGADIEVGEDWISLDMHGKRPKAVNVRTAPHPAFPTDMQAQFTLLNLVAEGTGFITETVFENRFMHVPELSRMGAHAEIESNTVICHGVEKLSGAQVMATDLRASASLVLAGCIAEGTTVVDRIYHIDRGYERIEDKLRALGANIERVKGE

Regarding `Nc1nn2c(-c3ccc(Cl)cc3Cl)cc(-c3ccc(OCc4ccccc4)cc3)nc2c1N=Nc1ccc(F)cc1` [Compound 4d, 5-(4-(Benzyloxy)phenyl)-7-(2,4-dichlorophenyl)-3-((4-fluorophenyl)diazenyl)pyrazolo[1,5-a]pyrimidin-2-amine], the MIC in [1] came to 15.6 µg/mL (≈ 26.7 µM).
In the case of `COc1ccc(N=Nc2c(N)nn3c(-c4ccc(C)cc4)cc(-c4ccc(OCc5ccccc5)cc4)nc23)cc1` [Compound 4c, 5-(4-(Benzyloxy)phenyl)-3-((4-methoxyphenyl)diazenyl)-7-(p-tolyl)pyrazolo[1,5-a]pyrimidin-2-amine], the MIC in the series with S. faecalis (MTCC- 0459) turned out to be 15.6 µg/mL (≈ 28.9 µM); with E. coli (ATCC- 25955) it was 1.95 µg/mL (≈ 3.61 µM); in series [4], 7.81 µg/mL (≈ 14.4 µM). In addition, the hemolysis amounted to 7.1% in [2] and 3.3% in [3]. Further, the “potency relative to penicillin G (times greater)” value in series [4] turned out to be 8 fold.
In turn, `COc1ccc(N=Nc2c(N)nn3c(-c4ccco4)cc(-c4ccc(OCc5ccccc5)cc4)nc23)cc1` [Compound 4i, 5-(4-(Benzyloxy)phenyl)-7-(furan-2-yl)-3-((4-methoxyphenyl)diazenyl)pyrazolo[1,5-a]pyrimidin-2-amine] gave an MBC/MIC in [5] of 8. For the same compound, the MIC in [6] is 15.6 µg/mL (≈ 30.2 µM). In [4], the “potency relative to penicillin G (times greater)” value was found to be 4 fold and the MIC is 15.6 µg/mL (≈ 30.2 µM).
Turning to `Cc1ccc(N=Nc2c(N)nn3c(-c4ccco4)cc(-c4ccc(OCc5ccccc5)cc4)nc23)cc1` [Compound 4h, 5-(4-(Benzyloxy)phenyl)-7-(furan-2-yl)-3-(p-tolyldiazenyl)pyrazolo[1,5-a]pyrimidin-2-amine], the MIC against S. faecalis (MTCC- 0459) was 15.6 µg/mL (≈ 31.2 µM); in series [1] it was 15.6 µg/mL (≈ 31.2 µM); in series [4], 3.91 µg/mL (≈ 7.81 µM). For the same compound, the “potency relative to penicillin G (times greater)” value in [4] came to 16 fold.
One may read the IC50 as the concentration at which inhibition is half-maximal. The low end stands for greater potency, the high end for weaker potency. The compound `C[C@@H]1O[C@@H]1P(=O)(O)O` [fosfomycin, Fosfomycin] gave an IC50 against E. coli MurA of 69.8 µM.
As to `Cc1ccc(N=Nc2c(N)nn3c(-c4ccc(Cl)cc4Cl)cc(-c4ccc(OCc5ccccc5)cc4)nc23)cc1` [Compound 4e, 5-(4-(Benzyloxy)phenyl)-7-(2,4-dichlorophenyl)-3-(p-tolyldiazenyl)pyrazolo[1,5-a]pyrimidin-2-amine], in the series with S. faecalis (MTCC- 0459), the MIC amounted to 7.81 µg/mL (≈ 13.5 µM) and the “antibacterial potency relative to penicillin G (times greater)” value is on record as 4 times.
For the compound `CC1(C)S[C@@H]2[C@H](NC(=O)Cc3ccccc3)C(=O)N2[C@H]1C(=O)O` [Penicillin G, penicillin G, reference compound], the MIC turned out to be 31.5 µg/mL (≈ 94.2 µM) in the series with S. faecalis (MTCC- 0459) and 62.5 µg/mL (≈ 187 µM) in series [4].
For `Cc1ccc(N=Nc2c(N)nn3c(-c4ccc(C)cc4)cc(-c4ccc(OCc5ccccc5)cc4)nc23)cc1` [Compound 4b, 5-(4-(Benzyloxy)phenyl)-7-(p-tolyl)-3-(p-tolyldiazenyl)pyrazolo[1,5-a]pyrimidin-2-amine], the MIC against S. faecalis (MTCC- 0459) came to 15.6 µg/mL (≈ 29.7 µM); with E. coli (ATCC- 25955), 1.95 µg/mL (≈ 3.72 µM); in series [4], 15.6 µg/mL (≈ 29.7 µM). For the same compound, the “potency relative to penicillin G (times greater)” value in series [4] worked out at 4 fold.
Regarding `COc1ccc(N=Nc2c(N)nn3c(-c4ccc(Cl)cc4Cl)cc(-c4ccc(OCc5ccccc5)cc4)nc23)cc1` [Compound 4f, 5-(4-(Benzyloxy)phenyl)-7-(2,4-dichlorophenyl)-3-((4-methoxyphenyl)diazenyl)pyrazolo[1,5-a]pyrimidin-2-amine], the MIC was determined as 15.6 µg/mL (≈ 26.2 µM) with S. faecalis (MTCC- 0459) and 7.81 µg/mL (≈ 13.1 µM) in [4]. The “potency relative to penicillin G (times greater)” value in series [4] came out at 8 fold.
With `Cc1ccc(-c2cc(-c3ccc(OCc4ccccc4)cc3)nc3c(N=Nc4ccc(F)cc4)c(N)nn23)cc1` [Compound 4a, 5-(4-(Benzyloxy)phenyl)-3-((4-fluorophenyl)diazenyl)-7-(p-tolyl)pyrazolo[1,5-a]pyrimidin-2-amine], in the series on S. faecalis (MTCC- 0459), the MIC was 3.91 µg/mL (≈ 7.4 µM) and the “antibacterial potency relative to penicillin G (times greater)” value worked out at 8 times.
Take `Nc1nn2c(-c3ccco3)cc(-c3ccc(OCc4ccccc4)cc3)nc2c1N=Nc1ccc(F)cc1` [Compound 4g, 5-(4-(Benzyloxy)phenyl)-3-((4-fluorophenyl)diazenyl)-7-(furan-2-yl)pyrazolo[1,5-a]pyrimidin-2-amine]: in the series with S. faecalis (MTCC- 0459), the MIC came out at 1.95 µg/mL (≈ 3.87 µM) and the “antibacterial potency relative to penicillin G (times greater)” value is recorded as 16 times. In series [4], the “potency relative to penicillin G (times greater)” value turned out to be 16 fold and the MIC stood at 3.91 µg/mL (≈ 7.75 µM).

Values taken from PMC11800161 (ACS Omega, 2025).
